10 compounds from US20240148821A1, “PHARMACEUTICAL USE OF CYCLIC PEPTIDE COMPOUND” (CHUGAI SEIYAKU KABUSHIKI KAISHA, priority 2021, published 2024) can be followed below.

Numbered stars: 1 amine (or outer) side, 2 acyl side, 3 side chain; on linkers, the order of the positions; unused ones are H or OH. Bridge positions count the residues as written; N and C are the ends. Square brackets hold non-standard residues; d marks the D form. Peptide text beside a SMILES is read from it. * marks the point of attachment. hPhe(3-Cl-4-CF3) = N[C@@H](CCc1ccc(C(F)(F)F)c(Cl)c1)C(=O)O; X36 = O=C([C@H](Cc1cc(F)cc(Cl)c1)N[*:1])[*:2]; NMePhe(4-Cl) = CN[C@@H](Cc1ccc(Cl)cc1)C(=O)O; NMePhe(4-Me) = CN[C@@H](Cc1ccc(C)cc1)C(=O)O; NMePhe(3-F) = CN[C@@H](Cc1cccc(F)c1)C(=O)O; NMeGly(cPent) = CN[C@H](C(=O)O)C1CCCC1; Phe(3-I) = N[C@@H](Cc1cccc(I)c1)C(=O)O; NMeCha = CN[C@@H](CC1CCCCC1)C(=O)O; NMeGly(cPr) = CN[C@H](C(=O)O)C1CC1; NMeChg = CN[C@H](C(=O)O)C1CCCCC1; NMeD = CN[C@@H](CC(=O)O)C(=O)O; NMeL = CN[C@@H](CC(C)C)C(=O)O; NEtAla = CCN[C@@H](C)C(=O)O; NMeNva = CCC[C@H](NC)C(=O)O; NMeV = CN[C@H](C(=O)O)C(C)C; Trifluoroethyl = FC(F)(F)C*; d(β3hA) = C[C@@H](N)CC(=O)O; NMeS = CN[C@@H](CO)C(=O)O; NMeA = CN[C@@H](C)C(=O)O; NMeAib = CNC(C)(C)C(=O)O; Nle = CCCC[C@H](N)C(=O)O; Piperidide = C1CCN(*)CC1; Ac5c = NC1(C(=O)O)CCCC1; Aze = O=C(O)[C@@H]1CCN1; NcPrGly = O=C(O)CNC1CC1; NEtG = CCNCC(=O)O; Sar = CNCC(=O)O Bounds are passed on as bounds.

In this assay the test system is Human pancreatic cancer cell line AsPC-1 (G12D mutation Kras). Nature of the assay: AsPC-1 cell growth inhibition (AsPC-1 CGI). As to conditions: read-out: AsPC-1 cell growth inhibition, 50% growth inhibitory concentration (IC50 value); 96 hours, CellTiter-Glo, values classified in ranges. It is filed as cell-based. (In ATP-based viability assays light output follows the ATP content of the culture.)
Method: Test compounds were serially dilated with dimethyl sulfoxide, and 200 nL was then dispensed to a U-bottom 96-well plate using Labcyte Echo. […] The cell suspension was dispensed to a. plate containing a test compound at 100 μL per well and incubated at 37° C. in a 5% carbon dioxide gas incubator. 96 hours later, 80 μL of CellTiter-Glo (Promega) was added to each well and fluorescence was measured.
As to `CCC[C@H]1C(=O)N(C)CC(=O)N[C@@H](CCc2ccc(C(F)(F)F)c(Cl)c2)C(=O)N2CCC[C@H]2C(=O)NC2(CCCC2)C(=O)N(C)[C@@H](C2CCCCC2)C(=O)N(C)[C@H](C(=O)N2CCCCC2)CC(=O)N(C)[C@@H](CC(C)C)C(=O)N[C@@H]([C@@H](C)CC)C(=O)N(C)CC(=O)N(C)CC(=O)N1C` [Compound 187] ([NMeL]I[Sar][Sar][NMeNva][Sar][hPhe(3-Cl-4-CF3)]P[Ac5c][NMeChg][NMeD]-Piperidide; lactam N-11), the IC50 was greater than 500 nM. The result for `CC[C@H](C)[C@@H]1NC(=O)[C@H](CC(C)C)N(C)C(=O)C[C@@H](C(=O)N2CCCCC2)N(C)C(=O)[C@H](CC(C)C)NC(=O)C(C)(C)N(C)C(=O)[C@H](Cc2ccc(OC)cc2)NC(=O)[C@H](Cc2cccc(I)c2)NC(=O)CN(C)C(=O)[C@H](Cc2ccc(C)cc2)N(C)C(=O)[C@@H]2CCN2C(=O)CN(C)C1=O` [Compound 188] ([NMeL]I[Sar][Aze][NMePhe(4-Me)][Sar][Phe(3-I)]Y(Me)[NMeAib]L[NMeD]-Piperidide; lactam N-11) reads greater than 500 nM; that for `CC[C@H](C)[C@@H]1NC(=O)[C@H](CC(C)C)N(C)C(=O)C[C@@H](C(=O)N(C)C)N(C)C(=O)[C@H](C2CCCC2)N(C)C(=O)C2(CCCC2)NC(=O)[C@@H](C)NC(=O)[C@H](CCc2ccc(C(F)(F)F)c(Cl)c2)NC(=O)CN(C)C(=O)[C@H](CC2CCCCC2)N(C)C(=O)[C@@H]2CCN2C(=O)[C@H](C)N(C)C1=O` [Compound 191] ([NMeL]I[NMeA][Aze][NMeCha][Sar][hPhe(3-Cl-4-CF3)][dA][Ac5c][NMeGly(cPent)][NMeD]-NMe2; lactam N-11), greater than 500 nM. Consider `CC[C@H](C)[C@@H]1NC(=O)[C@H](C)N(C)C(=O)C[C@@H](C)NC(=O)[C@H](C2CCCC2)N(C)C(=O)C2(CCCC2)NC(=O)[C@@H]2CCCN2C(=O)[C@H](CCc2ccc(C(F)(F)F)c(Cl)c2)NC(=O)CN(C)C(=O)[C@H](Cc2cccc(F)c2)N(C)C(=O)[C@@H]2CCCN2C(=O)CN(C)C1=O` [Compound 194] (cyclo([Ac5c][NMeGly(cPent)][d(β3hA)][NMeA]I[Sar]P[NMePhe(3-F)][Sar][hPhe(3-Cl-4-CF3)]P)), for which the IC50 was greater than 500 nM.

For the compound `CC[C@H](C)[C@@H]1NC(=O)[C@H](C)N(CC)C(=O)C[C@@H](C)NC(=O)[C@H](C(C)C)N(C)C(=O)C2(CCCC2)NC(=O)[C@@H]2CCCN2C(=O)[C@H](CCc2ccc(C(F)(F)F)c(Cl)c2)NC(=O)CN(C)C(=O)[C@H](CC2CCCCC2)N(C)C(=O)CN(C)C(=O)CN(C)C1=O` [Compound 196] (cyclo([Ac5c][NMeV][d(β3hA)][NEtAla]I[Sar][Sar][NMeCha][Sar][hPhe(3-Cl-4-CF3)]P)), the IC50 is greater than 500 nM.

As to `CC[C@H](C)[C@@H]1NC(=O)[C@H](CC(C)C)N(C)C(=O)C[C@@H](C(=O)N2CCCCC2)N(C)C(=O)[C@H](C2CC2)N(C)C(=O)C2(CCCC2)NC(=O)[C@@H]2CCCN2C(=O)[C@H](CCc2ccc(C(F)(F)F)c(Cl)c2)NC(=O)CN(C)C(=O)[C@H](CC2CCCCC2)N(C)C(=O)CN(C)C(=O)CN(C)C1=O` [Compound 197] ([NMeL]I[Sar][Sar][NMeCha][Sar][hPhe(3-Cl-4-CF3)]P[Ac5c][NMeGly(cPr)][NMeD]-Piperidide; lactam N-11), the IC50 is greater than 500 nM. On to `CCCC[C@@H]1NC(=O)[C@H](Cc2cc(F)cc(Cl)c2)NC(=O)CN(C)C(=O)[C@H](Cc2ccc(Cl)cc2)N(C)C(=O)CN(C)C(=O)CN(C)C(=O)[C@H]([C@@H](C)CC)NC(=O)[C@H](CC(C)C)N(C)C(=O)C[C@@H](C(=O)N2CCCCC2)N(C)C(=O)[C@H](CC(C)C)NC(=O)C(C)(C)N(C)C1=O` [Compound 202] ([NMeL]I[Sar][Sar][NMePhe(4-Cl)][Sar][X36][Nle][NMeAib]L[NMeD]-Piperidide; lactam N-11), for which the IC50 is greater than 500 nM. On to `CC[C@H](C)[C@@H]1NC(=O)[C@H](CC(C)C)N(C)C(=O)C[C@@H](C)NC(=O)[C@H](C(C)C)N(C)C(=O)C2(CCCC2)NC(=O)[C@@H]2CCCN2C(=O)[C@H](CCc2ccc(C(F)(F)F)c(Cl)c2)NC(=O)CN(C2CC2)C(=O)[C@H](CC2CCCCC2)N(C)C(=O)CN(C)C(=O)CN(C)C1=O` [Compound 204] (cyclo([Ac5c][NMeV][d(β3hA)][NMeL]I[Sar][Sar][NMeCha][NcPrGly][hPhe(3-Cl-4-CF3)]P)), for which the IC50 is greater than 500 nM. Turning to `CC[C@H](C)[C@@H]1NC(=O)[C@H](CC(C)C)N(C)C(=O)C[C@@H](C(=O)N2CCCCC2)N(C)C(=O)[C@H](COCC(F)(F)F)N(C)C(=O)C2(CCCC2)NC(=O)[C@@H]2CCCN2C(=O)[C@H](CCc2ccc(C(F)(F)F)c(Cl)c2)NC(=O)CN(C)C(=O)[C@H](CC2CCCCC2)N(C)C(=O)CN(C)C(=O)CN(C)C1=O` [Compound 208] ([NMeL]I[Sar][Sar][NMeCha][Sar][hPhe(3-Cl-4-CF3)]P[Ac5c][NMeS](Trifluoroethyl)[NMeD]-Piperidide; lactam N-11), the IC50 is greater than 500 nM.

With `CC[C@H](C)[C@@H]1NC(=O)[C@H](CC(C)C)N(C)C(=O)C[C@@H](C)NC(=O)[C@H](C(C)C)N(C)C(=O)C2(CCCC2)NC(=O)[C@@H]2CCCN2C(=O)[C@H](CCc2ccc(C(F)(F)F)c(Cl)c2)NC(=O)CN(C)C(=O)[C@H](CC2CCCCC2)N(C)C(=O)CN(C)C(=O)CN(CC)C1=O` [Compound 210] (cyclo([Ac5c][NMeV][d(β3hA)][NMeL]I[NEtG][Sar][NMeCha][Sar][hPhe(3-Cl-4-CF3)]P)), the IC50 is greater than 500 nM.
